# Results from a melting point compilation (Tetko et al.; mined from patent text by program, amines drawn as free bases though some values may be those of a salt).
row,melting point [°C],SMILES
1,140 to 141,COC(=O)C(Cc1ccccc1)Oc1ccc2cc(-c3ccc(-c4ccccc4)[nH]3)ccc2c1 (stereo not drawn)
2,173 to 175,CCC(=O)N1c2ccccc2CC1C(=O)O (stereo not drawn)
3,114 to 116,CCOC(=O)C1CCC2(CCN(S(=O)(=O)c3ccc(C)cc3)c3ccccc3C2)C1=O (stereo not drawn)
4,83 to 86,CCCN(CCC)C1CCc2c(ccc3c2C(=O)C(=O)N3)C1 (stereo not drawn)
5,213 to 216,CNC1CCN(c2cc3c(cc2F)c(=O)c(C(=O)O)c2n3C(C)S2)C1 (stereo not drawn)
6,146 to 149,COc1ccc2c(c1)CCC1C2CCC2(C)C(=O)C(Br)CC12 (stereo not drawn)
7,207,CCC1c2cc(F)ccc2-c2cc(-c3ccccc3)ccc2N1S(=O)(=O)c1ccc(O)cc1 (stereo not drawn)
8,> 230,CSc1nn2c(N)cc(C)nc2c1S(=O)(=O)c1ccc(I)cc1
9,129 to 130,COCCOc1ccc(C(=O)C(=O)O)cc1
10,268 to 270,O=C(O)c1cc2cccc(I)c2s1
11,79 to 80,CCCCCCCCCCCC(=O)c1cn(S(=O)(=O)c2ccc(C)cc2)c2ccccc12
12,111 to 113,CCCCCc1c(-c2ccc3c(Br)c(OCC#N)ccc3c2)oc2ccccc12
13,204 to 207,O=C(O)COC1CCN(Cc2ccc3c(c2)Nc2nccnc2S3)CC1
14,> 300,O=c1c(Cl)nc2cccnc2n1-c1ccc(Cl)cc1
15,75 to 77,O=c1ccoc2ccc(OCCCCCl)cc12
16,183 to 184,CC(=O)Nc1ccc(C23CC2C(=O)N(C)C3=O)cc1 (stereo not drawn)
17,184 to 188,C[C@]1(COc2ccc(N3CCN(C(=O)OCc4ccc(Cl)cc4)CC3)cc2)Cn2cc([N+](=O)[O-])nc2O1
18,124 to 126,C=CC(C)(C)C(=O)C(Oc1ccc(Cl)cc1)n1cnnc1 (stereo not drawn)
19,153 to 155,CCC1=Nc2c(C)nn(C)c2C2=NC(C)CN12 (stereo not drawn)

row,melting point [°C],SMILES
1,222 to 224,COC(=O)c1cc(C(=O)O)cc(-c2cc(Cl)ccc2Cl)c1
2,166 to 168,O=S1(=O)N=CN(C2CC2)c2c(F)cc(F)c(F)c21
3,90 to 92,CCCCc1nc2c(N)nc(C)c(C)c2n1CC(C)(C)NS(C)(=O)=O
4,153 to 155,O=C(O)c1c(F)cc(F)c(F)c1C(=O)O
5,62 to 64,CC(C)(C)OC(=O)N1CCCN(c2ccc(C(C)(C)C)cc2)CC1
6,198 to 200,COc1ccc(N2CCOCC2)c2sc(NC(=O)N(C)[C@H]3CC[C@@H](OC)CC3)nc12
7,155 to 158,CC(=O)N1CCN(c2c(N[C@@H](Cc3ccccc3)C(=O)O)c(=O)c2=O)CC1
8,165 to 167,CN1OCN=C1c1nn(-c2c(Cl)cc(C(F)(F)F)cc2Cl)c(N)c1S(=O)C(F)(F)F (stereo not drawn)
9,170 to 175,CC1(C)CC(=O)C(=C(O)COc2ccc(Cl)cc2Cl)C(=O)C1
10,251 to 252,O=C(Nc1ccc(-c2cnc(-c3ccc(NC(=O)C45CC6CC(CC(C6)C4)C5)cc3)[nH]2)cc1)c1cccnc1
11,125 to 127,CCOC(OCC)c1cc(NC(c2ccccc2)(c2ccccc2)c2ccccc2)c(F)cn1
12,214 to 216,CCc1ccc(-c2c3ccccc3c(-c3ccc(CC)cc3)c3cc(Cl)ccc23)cc1
13,92 to 94,C=CC[C@H]1C(=O)N(S(C)(=O)=O)[C@H]2CCN(C(=O)OCc3ccccc3)[C@H]12 (relative stereo)
14,65 to 78,N=C(N)N(CCCC(C=O)NC(=O)C1CCCN1C(=O)COc1ccccc1)C(=O)OCc1ccccc1 (stereo not drawn)
15,159 to 161,CCc1ccc(C(=NO)c2ccc(Cl)cc2)c(O)c1
16,243 to 244,CCOC(=O)CCCOc1ccc2c(c1)CN1CC(=O)NC1=N2
17,39.5 to 43.2,CON(C)C(=O)c1ccc(Cl)c(Cl)c1
18,62 to 64,O=[N+]([O-])c1cc(CN(CCN=C=S)CCN=C=S)cc(CN(CCN=C=S)CCN=C=S)c1
19,178 to 181,O=C(c1ccc([N+](=O)[O-])cc1)N1Cc2ccccc2C(c2ccccc2Cl)c2ccccc21 (stereo not drawn)
